Data on nine compounds can be found in ChEMBL document CHEMBL4325876, “Novel 3-(2,6,9-trisubstituted-9H-purine)-8-chalcone derivatives as potent anti-gastric cancer agents: Design, synthesis and structural optimization” (Eur J Med Chem, 2019).

By IC50 is commonly meant the concentration needed to halve the response being measured.

Activity calls are given as the source filed them. The rule behind the calls is not given here. A value given as a limit tells only on which side of the number the result lay.

The first data set deals with MGC-803. Kind of data set: Induction of apoptosis in human MGC803 cells assessed as cell rounding at 0.25 to 1 uM after 72 hrs by Hoechst 33258 staining based fluorescence microscopic method. The format is functional.
Details: not given
On to `CCCSc1nc(N2CCOCC2)c2nc(/C=C/C(=O)c3ccc(C)cc3)n(CCCc3ccccc3)c2n1`, for which the outcome was Active.

A further data set has as its system MGC-803. Kind of data set: Inhibition of colony formation in human MGC803 cells after 7 days by crystal violet staining based assay. The format is functional, cell-based.
Details: not given
Regarding `CCCSc1nc(Cl)c2c(n1)N(Cc1ccccc1)C(C(=O)NCCCc1ccccc1)N2` (stereo not drawn), the inhibition result is “Active”.

For the compound `CCCSc1nc(N2CCOCC2)c2nc(/C=C/C(=O)c3ccc(C)cc3)n(CCCc3ccccc3)c2n1`, the inhibition result is “Dose-dependent effect”.

For the next data set, the system named is MGC-803. The experiment in a line: Induction of apoptosis in human MGC803 cells assessed as increase in cleaved caspase-8 level after 72 hrs by Western blot analysis. It counts as functional, cell-based.
Details: not given
For orientation: Immunoblotting shows a protein as a band on a membrane.
`CCCSc1nc(N2CCOCC2)c2nc(/C=C/C(=O)c3ccc(C)cc3)n(CCCc3ccccc3)c2n1`: the Activity result was “Dose-dependent effect”.

A further data set relates to MGC-803. Kind of data set: Cytotoxicity against human MGC803 cells assessed as inhibition of cell proliferation after 72 hrs by MTT assay. The format is functional, cell-based. Conditions: MGC-803, 72 h. Background: Tetrazolium assays rely on reduction of a dye to a coloured formazan, in cell work by metabolically active cells.
Regarding `CCCSc1nc(N2CCOCC2)c2nc(/C=C/c3ccccc3)n(Cc3ccccc3)c2n1`, the IC50 came to 30.5 µM.

Regarding `CCCSc1nc(N2CCOCC2)c2nc(CCc3ccccc3)n(Cc3ccccc3)c2n1`, the IC50 was above 32 µM.

For the compound `CCCSc1nc(N2CCOCC2)c2nc(/C=C/C(=O)c3ccc(-c4ccccc4)cc3)n(Cc3ccccc3)c2n1`, the IC50 is above 32 µM.

As for `CCCSc1nc(N2CCOCC2)c2nc(/C=C/C(=O)c3ccccc3Cl)n(Cc3ccccc3)c2n1`, the IC50 amounted to 2.41 µM.

Consider `CCCSc1nc(N2CCOCC2)c2nc(/C=C/C(=O)c3ccc4ccccc4c3)n(Cc3ccccc3)c2n1`, for which the IC50 amounted to 7.75 µM.

For the compound `CCCSc1nc(N2CCOCC2)c2nc(/C=C/C(=O)c3ccc(C)cc3)n(CCCc3ccccc3)c2n1`, the IC50 is 0.84 µM.

Take `CCCSc1nc(N2CCOCC2)c2nc(/C=C/C(=O)c3ccc(Br)cc3)n(Cc3ccccc3)c2n1`: the IC50 came out at 3.41 µM.

Take `CCCSc1nc(N2CCOCC2)c2nc(/C=C/C(=O)c3ccc(Cl)cc3)n(Cc3ccccc3)c2n1`: the IC50 was determined as 8.32 µM.

A further data set relates to MGC-803. Kind of data set: Antiinvasive activity in human MGC803 cells after 72 hrs by Hoechst 33258 staining based matrigel coated transwell assay. The format is functional, cell-based.
Details: not given
As for `CCCSc1nc(N2CCOCC2)c2nc(/C=C/C(=O)c3ccc(C)cc3)n(CCCc3ccccc3)c2n1`, the Activity result was “Dose-dependent effect”.

The next data set has as its system MGC-803. The experiment in a line: Induction of apoptosis in human MGC803 cells after 72 hrs by Annexin V-FITC/propidium iodide staining based flow cytometry. It counts as functional, cell-based.
Details: not given
Background: In flow cytometry, cells or beads pass a laser one at a time.
For the compound `CCCSc1nc(N2CCOCC2)c2nc(/C=C/C(=O)c3ccc(C)cc3)n(CCCc3ccccc3)c2n1`, the Activity entry was “Dose-dependent effect”.

A further data set concerns THP-1. Kind of data set: Cytotoxicity against human THP1 cells assessed as inhibition of cell proliferation after 72 hrs by MTT assay. It counts as functional, cell-based. The conditions noted are these: THP-1, 72 h.
In the case of `CCCSc1nc(N2CCOCC2)c2nc(/C=C/C(=O)c3ccc(-c4ccccc4)cc3)n(Cc3ccccc3)c2n1`, the IC50 was above 32 µM.

Take `CCCSc1nc(N2CCOCC2)c2nc(/C=C/C(=O)c3ccccc3Cl)n(Cc3ccccc3)c2n1`: the IC50 was 9.73 µM.

Take `CCCSc1nc(N2CCOCC2)c2nc(/C=C/C(=O)c3ccc4ccccc4c3)n(Cc3ccccc3)c2n1`: the IC50 is above 32 µM.

As to `CCCSc1nc(N2CCOCC2)c2nc(/C=C/C(=O)c3ccc(C)cc3)n(CCCc3ccccc3)c2n1`, the IC50 was determined as 26.2 µM.

As for `CCCSc1nc(N2CCOCC2)c2nc(/C=C/C(=O)c3ccc(Br)cc3)n(Cc3ccccc3)c2n1`, the IC50 is 11.4 µM.

As to `CCCSc1nc(N2CCOCC2)c2nc(/C=C/C(=O)c3ccc(Cl)cc3)n(Cc3ccccc3)c2n1`, the IC50 was 3.71 µM.

In another data set the test system is A549. The experiment in a line: Cytotoxicity against human A549 cells assessed as inhibition of cell proliferation after 72 hrs by MTT assay. The format is functional, cell-based. The conditions noted are these: A549, 72 h.
With `CCCSc1nc(N2CCOCC2)c2nc(/C=C/c3ccccc3)n(Cc3ccccc3)c2n1`, the IC50 was above 32 µM.

Take `CCCSc1nc(N2CCOCC2)c2nc(CCc3ccccc3)n(Cc3ccccc3)c2n1`: the IC50 is above 32 µM.

Consider `CCCSc1nc(N2CCOCC2)c2nc(/C=C/C(=O)c3ccc(-c4ccccc4)cc3)n(Cc3ccccc3)c2n1`, for which the IC50 is above 32 µM.

On to `CCCSc1nc(N2CCOCC2)c2nc(/C=C/C(=O)c3ccccc3Cl)n(Cc3ccccc3)c2n1`, for which the IC50 worked out at 9.19 µM.

Take `CCCSc1nc(N2CCOCC2)c2nc(/C=C/C(=O)c3ccc4ccccc4c3)n(Cc3ccccc3)c2n1`: the IC50 came to 28.1 µM.

As for `CCCSc1nc(N2CCOCC2)c2nc(/C=C/C(=O)c3ccc(C)cc3)n(CCCc3ccccc3)c2n1`, the IC50 came out at 2.11 µM.

As for `CCCSc1nc(N2CCOCC2)c2nc(/C=C/C(=O)c3ccc(Br)cc3)n(Cc3ccccc3)c2n1`, the IC50 was 10.7 µM.

Take `CCCSc1nc(N2CCOCC2)c2nc(/C=C/C(=O)c3ccc(Cl)cc3)n(Cc3ccccc3)c2n1`: the IC50 stood at 17.1 µM.

A further data set has as its system MGC-803. Kind of data set: Antimigratory activity in human MGC803 cells at 0.25 to 1 uM after 72 hrs by wound healing assay. The format is functional, cell-based.
Details: not given
Take `CCCSc1nc(N2CCOCC2)c2nc(/C=C/C(=O)c3ccc(C)cc3)n(CCCc3ccccc3)c2n1`: the outcome was Active.

Test system in the next data set: not listed separately
The experiment in a line: Selectivity index, ratio of IC50 for human GES-1 cells to IC50 for human MGC803 cells. The conditions noted are these: GES-1 cells versus MGC803 cells, read-out: Ratio IC50. It counts as toxicity.
In the case of `CCCSc1nc(Cl)c2c(n1)N(Cc1ccccc1)C(C(=O)NCCCc1ccccc1)N2` (stereo not drawn), the selectivity ratio is 1.5.

`CCCSc1nc(N2CCOCC2)c2nc(/C=C/C(=O)c3ccc(C)cc3)n(CCCc3ccccc3)c2n1`: the selectivity ratio was 27.8.

The next data set has as its system MGC-803. Kind of data set: Induction of apoptosis in human MGC803 cells assessed as increase in cleaved caspase-3 level after 72 hrs by Western blot analysis. The format is functional, cell-based.
Details: not given
Turning to `CCCSc1nc(N2CCOCC2)c2nc(/C=C/C(=O)c3ccc(C)cc3)n(CCCc3ccccc3)c2n1`, the Activity result was “Dose-dependent effect”.

For another data set, the system named is MGC-803. The experiment in a line: Induction of apoptosis in human MGC803 cells assessed as increase in cleaved PARP level after 72 hrs by Western blot analysis. The format is functional, cell-based.
Details: not given
Consider `CCCSc1nc(N2CCOCC2)c2nc(/C=C/C(=O)c3ccc(C)cc3)n(CCCc3ccccc3)c2n1`, for which the Activity entry was “Dose-dependent effect”.

The test system of the next data set is MGC-803. The experiment in a line: Induction of apoptosis in human MGC803 cells assessed as increase in Bax expression at 0.25 to 1 uM after 72 hrs by Western blot analysis. It counts as functional, cell-based.
Details: not given
Turning to `CCCSc1nc(N2CCOCC2)c2nc(/C=C/C(=O)c3ccc(C)cc3)n(CCCc3ccccc3)c2n1`, the outcome was Active.

A further data set has as its system MGC-803. Kind of data set: Induction of apoptosis in human MGC803 cells assessed as formation of apoptotic bodies at 0.25 to 1 uM after 72 hrs by Hoechst 33258 staining based fluorescence microscopic method. It counts as functional, cell-based.
Details: not given
Take `CCCSc1nc(N2CCOCC2)c2nc(/C=C/C(=O)c3ccc(C)cc3)n(CCCc3ccccc3)c2n1`: the outcome was Active.

The subject of the next data set is MGC-803. The experiment in a line: Induction of apoptosis in human MGC803 cells assessed as decrease in Bcl2 expression at 0.25 to 1 uM after 72 hrs by Western blot analysis. It counts as functional, cell-based.
Details: not given
For the compound `CCCSc1nc(N2CCOCC2)c2nc(/C=C/C(=O)c3ccc(C)cc3)n(CCCc3ccccc3)c2n1`, the outcome was Active.

In a further data set the test system is TE-1. Kind of data set: Cytotoxicity against human TE1 cells assessed as inhibition of cell proliferation after 72 hrs by MTT assay. It counts as functional, cell-based. Conditions: TE-1, 72 h.
Take `CCCSc1nc(N2CCOCC2)c2nc(/C=C/C(=O)c3ccc(-c4ccccc4)cc3)n(Cc3ccccc3)c2n1`: the IC50 was above 32 µM.

For the compound `CCCSc1nc(N2CCOCC2)c2nc(/C=C/C(=O)c3ccccc3Cl)n(Cc3ccccc3)c2n1`, the IC50 was 4.87 µM.

As for `CCCSc1nc(N2CCOCC2)c2nc(/C=C/C(=O)c3ccc4ccccc4c3)n(Cc3ccccc3)c2n1`, the IC50 is 23.8 µM.

For `CCCSc1nc(N2CCOCC2)c2nc(/C=C/C(=O)c3ccc(C)cc3)n(CCCc3ccccc3)c2n1`, the IC50 was 8.52 µM.

As for `CCCSc1nc(N2CCOCC2)c2nc(/C=C/C(=O)c3ccc(Br)cc3)n(Cc3ccccc3)c2n1`, the IC50 is 13.3 µM.

With `CCCSc1nc(N2CCOCC2)c2nc(/C=C/C(=O)c3ccc(Cl)cc3)n(Cc3ccccc3)c2n1`, the IC50 is 19.1 µM.

Another data set concerns MGC-803. The experiment in a line: Induction of apoptosis in human MGC803 cells assessed as chromatin shrinkage at 0.25 to 1 uM after 72 hrs by Hoechst 33258 staining based fluorescence microscopic method. The format is functional, cell-based.
Details: not given
As to `CCCSc1nc(N2CCOCC2)c2nc(/C=C/C(=O)c3ccc(C)cc3)n(CCCc3ccccc3)c2n1`, the outcome was Active.

Another data set deals with MGC-803. Kind of data set: Induction of apoptosis in human MGC803 cells assessed as apoptotic cells at 1 uM after 72 hrs by Annexin V-FITC/propidium iodide staining based flow cytometry (reference value: 0.6%). The format is functional.
Details: not given
For the compound `CCCSc1nc(N2CCOCC2)c2nc(/C=C/C(=O)c3ccc(C)cc3)n(CCCc3ccccc3)c2n1`, the Activity stood at 86.3%.

For the next data set, the system named is MGC-803. Kind of data set: Induction of apoptosis in human MGC803 cells assessed as increase in cleaved caspase-9 level after 72 hrs by Western blot analysis.
Details: not given
It counts as functional, cell-based.
On to `CCCSc1nc(N2CCOCC2)c2nc(/C=C/C(=O)c3ccc(C)cc3)n(CCCc3ccccc3)c2n1`, for which the Activity entry was “Dose-dependent effect”.

The test system of the next data set is GES1. Kind of data set: Cytotoxicity against human GES-1 cells assessed as inhibition of cell proliferation after 72 hrs by MTT assay. The format is cell-based. Conditions: GES1, 72 h.
For `CCCSc1nc(Cl)c2c(n1)N(Cc1ccccc1)C(C(=O)NCCCc1ccccc1)N2` (stereo not drawn), the IC50 was determined as 24.9 µM.

As for `CCCSc1nc(N2CCOCC2)c2nc(/C=C/C(=O)c3ccc(C)cc3)n(CCCc3ccccc3)c2n1`, the IC50 worked out at 23.4 µM.

Another data set deals with MGC-803. Kind of data set: Antimigratory activity in human MGC803 cells at 0.25 to 1 uM after 72 hrs by Hoechst 33258 staining based transwell assay. It counts as functional, cell-based.
Details: not given
With `CCCSc1nc(N2CCOCC2)c2nc(/C=C/C(=O)c3ccc(C)cc3)n(CCCc3ccccc3)c2n1`, the outcome was Active.
